Entries after “also recorded” stand apart in the source; their conditions may differ.
Columns and labels:
Assay type in all cases: in vivo, rat
[1] = test system: mitochondrial glycerol 3-phosphate dehydrogenase (mGPdH); assay: Mitochondrial glycerol 3-phosphate dehydrogenase (mGPdH) activity in liver mitochondria of treated rats; settings: Wistar rats; for Mitochondrial GPdH activity: 2.5 μg/100 g continuous, 21 days
Experimental: Mitochondrial glycerol 3-phosphate dehydrogenase (mGPdH) activity was measured on the supernatant of isolated mitochondria after three cycles of freezing-thawing. Forty μg of mitochondria were incubated in a KH2PO4/K2HPO4 buffer (50 mM, pH 7.5) containing 9.3 μM of antimycin A, 5 μM of rotenone and decylubiquinone (50 μM). The reduction of 50 μM dichloro-indophenol (DCIP) by mGPDH was measured spectrophotometrically at 600 nm at 37° C. and enzymatic activity was expressed as μmol·min^−1·mg prot^−1.

[2] = test system: ZDF rats; assay: Body weight and food intake of ZDF rats; settings: 2.5 μg/100 g BW/day, 21 days
Experimental: Adult male rat bred in the animal room facilities of Laboratory of Fundamental and Applied Bioenergetics (Wistar strain) or purchased from Charles-River Laboratories, Domaine des oncins, L'ARBRESLE France [(genetically obese normoglycemic (Zucker or Fa/Fa) or diabetic (ZDF)] were caged individually in stainless steel hanging cages and maintained in a 22° C., 50±10% relative humidity and 12 h:12 h light:dark environment. All animals were fed ad libitum with a standard rat chow (Safe A04, Villemoisson, France) and tap water. Body mass and food intake were recorded twice/thrice a week and fresh food was provided at the same time to ensure minimal disturbance to the animals' food behavior.
Then ZDF rats were treated with low doses of rT3 for 21 days (2.5 μg/100 g BW/day) and the glycaemia, insulinaemia were measured after 8, 16 and 21 days.

[3] = test system: Wistar rats; assay: Indirect calorimetry (energy expenditure, respiratory quotient) of Wistar rats; settings: for Energy expenditure and respiratory quotient (metabolic activity): 2.5 μg/100 g continuous, 21 days; for Energy expenditure (EE, metabolism): 25 μg/100 g BW
From the text: (§1) Energy expenditure as well as the nature of substrate oxidized (carbohydrates or lipids) were investigated by indirect calorimetry. This principle is based on the determinations of CO2 release (VCO2) and O2 consumption (VO2) by each animal. It assumes that O2 is entirely involved in substrate oxidation in the respiratory chain (leading to water production) while CO2 release is related to substrate decarboxylation (in the Krebs' cycle). These measurements allow assessing energy expenditure (EE) and respiratory quotient ([…], RQ). EE represent the absolute energy dissipation during rest and activity. RQ is a relative measurement indicating the ratio of carbohydrate versus lipid involved in oxidative pathway. A ratio of 1.0 indicates exclusive carbohydrate oxidation while a ratio of 0.7 indicates exclusive lipid oxidation. Each value between these two extreme values indicates the relative proportion of each substrate (of note protein oxidation was not evaluated). As an example, RQ approaches 0.7 during fasting, indicating lipid oxidation, conversely after feeding RQ increases close to 1 indicating carbohydrate oxidation resulting from food intake and blood insulin rise. Likewise, animals fed high-carbohydrate diets have higher RQs than those fed high-fat diets.
(§2) The indirect calorimetry system (Panlab, Barcelona, Spain) consists of cages, pumps, flow controllers, valves, and analyzers. It is computer-controlled in order to sequentially measure O2 and CO2 concentrations as well as air flow in four separate cages allowing four simultaneous determinations. Rats are isolated in one of the four metabolic chambers, and room air is used as a reference to monitor ambient O2 and CO2 concentrations periodically.
(§3) At predefined intervals, the computer sends a signal to store differential CO2 and O2 concentrations, flow rate, allowing computing VCO2, VO2, RQ, and EE (Weir equation) with data acquisition hardware (Metabolism, Panlab, Barcelona, Spain).

[4] = test system: Wistar rats; assay: Growth rate (body weight) and food intake of Wistar rats; settings: ultra low dose 0.25 μg/100 g BW, vs placebo
[5] = test system: n0STZ rats; assay: Oral glucose tolerance test (OGTT) and pancreas mass in n0STZ rats; settings: 2.5 μg/100 g BW
Experimental: N0STZ rats are diabetic non obese with moderate insulin-resistance, and have received an injection of streptozotocine just after the birth, said product killing pancreatic cells.
(§4) The glucose resistance of these animals was tested by an oral glucose tolerance test (OGTT) Animals were fed with 2 g/kg BW of glucose and the Glucose concentration and Insulin concentration in blood were measured.
The glucose concentration (FIG. 35) and insulin concentration (FIG. 36) were then measured for this time.

[6] = test system: GK rats; assay: Oral glucose tolerance test (OGTT) and pancreas mass in GK rats; settings: 2.5 μg/100 g BW
Experimental: GK rats are diabetic non obese with moderate insulin-resistance, and have lower pancreatic cells than control rats. The pancreatic cells are also less efficient in the insulin secretion.
as §4
The glucose concentration (FIG. 40) and insulin concentration (FIG. 41) were then measured for this time.

[7] = test system: ZDF rats; assay: Indirect calorimetry (EE, RQ) of ZDF rats
From the text: as §1, §2, §3

[8] = 25 μg/100 g BW pellet, vs placebo
[9] = 2 g/kg glucose, 3 hours, vs placebo
[10] = 5 first minutes following the OGTT

## N[C@@H](Cc1ccc(Oc2cc(I)c(O)c(I)c2)c(I)c1)C(=O)O [rT3, 3′,5′,3-triiodothyronine]
[1]; liver mitochondria, high dose 25 μg/100 g
  Enzymatic activity of mitochondrial glycerol-3-phosphate dehydrogenase: significantly increased
[1]; liver mitochondria, low dose 2.5 μg/100 g, sub-cutaneous pellet
  Enzymatic activity of mitochondrial glycerol-3-phosphate dehydrogenase (mGPdH): significantly increased; also recorded: more enhanced
[1]; intra-peritoneal pump
  Mitochondrial GPdH activity: enhanced
[1]; sub-cutaneous pump
  Mitochondrial GPdH activity: enhanced
[2]
  Appetite (food intake): not associated with a loose of appetite
[2]; vs placebo
  Animal mass (body weight): slimmer; also recorded: reduced
[3]; intra-peritoneal pump
  Energy expenditure and respiratory quotient (metabolic activity): increase of the metabolic activity
[3]; sub-cutaneous pump
  Energy expenditure and respiratory quotient (metabolic activity): increase of the metabolic activity
[3]; [8]
  Respiratory quotient (RQ) during the day (diurnal period): almost identical to placebo
  Respiratory quotient (RQ) during the night: higher
[3]; daily intra-peritoneal injection
  Energy expenditure (EE, metabolism): do no modify the metabolism
[3]; daily per os
  Energy expenditure (EE, metabolism): do no modify the metabolism
[3]; daily sub-cutaneous injection
  Energy expenditure (EE, metabolism): do no modify the metabolism
[3]; 25 μg/100 g BW/day, continuous subcutaneous pellet, 24 h calorimetry
  Energy expenditure (EE, metabolic expenses): enhanced metabolic expanses
[3]; 25 μg/100 g BW/day, continuous subcutaneous pellet, after 900 min
  Respiratory quotient (RQ): significant difference from the placebo treated animals
[3]; high dose 25 μg/100 g BW
  Energy expenditure (EE): significantly enhance
[3]; high dose 25 μg/100 g BW, vs placebo
  Respiratory quotient (RQ): increase
[3]; low dose 2.5 μg/100 g BW, vs placebo
  Respiratory quotient (RQ): increase
[3]; ultra low dose 0.25 μg/100 g BW, vs placebo
  Respiratory quotient (RQ): decrease
[4]
  Body weight: also reduce the body weight
[5]; [9]
  AUC of the glucose concentration after OGTT: significantly reduced
  AUC of the insulin concentration after OGTT: largely enhanced
[5]; [10]
  Kinetic of blood glucose concentration after OGTT: regulate more rapidly
[5]; 20 min kinetic
  Kinetic of insulin concentration after OGTT: high increase
[5]; vs placebo
  Pancreas mass: increase
[6]; [9]
  AUC of the glucose concentration after OGTT: significantly reduced
  AUC of the insulin concentration after OGTT: largely enhanced
[6]; [10]
  Kinetic of blood glucose concentration after OGTT: regulate more rapidly
[6]; 20 min kinetic
  Kinetic of insulin concentration after OGTT: increase
[6]; vs placebo
  Pancreas mass: increase
[7]; 2.5 μg/100 g BW, vs placebo
  Energy expenditure: enhanced
  Respiratory quotient (RQ): enhanced
[7]; low dose of rT3
  Energy expenditure, enhancement: +50%

— patent US20110064773A1, “PHARMACEUTICAL COMPOSITIONS COMPRISING A THYROID HORMON AND THEIR THERAPEUTIC USE” (UNIVERSITE JOSEPH FOURIER, priority 2007, published 2011)
